Activity calls are given as the source filed them. The calls are words filed in the database; no cut-off is given here.

Consider two compounds from ChEMBL document CHEMBL3769362, “Thermodynamic profiling of inhibitors of Nrf2:Keap1 interactions” (Bioorg Med Chem Lett, 2016).

In assay [1] the target is T1, Keap1/Nrf2 (Homo sapiens) (UniProt Q16236+Q14145). In words: Inhibition of Nrf2:Keap1 interaction (unknown origin) assessed as thermodynamic enthalpy changes by MR121 dye-labeled Nrf2-derived peptide based tracer displacement assay. The assay is classed as protein assay.
T1 sequence (Q14145 whole entry, looked up): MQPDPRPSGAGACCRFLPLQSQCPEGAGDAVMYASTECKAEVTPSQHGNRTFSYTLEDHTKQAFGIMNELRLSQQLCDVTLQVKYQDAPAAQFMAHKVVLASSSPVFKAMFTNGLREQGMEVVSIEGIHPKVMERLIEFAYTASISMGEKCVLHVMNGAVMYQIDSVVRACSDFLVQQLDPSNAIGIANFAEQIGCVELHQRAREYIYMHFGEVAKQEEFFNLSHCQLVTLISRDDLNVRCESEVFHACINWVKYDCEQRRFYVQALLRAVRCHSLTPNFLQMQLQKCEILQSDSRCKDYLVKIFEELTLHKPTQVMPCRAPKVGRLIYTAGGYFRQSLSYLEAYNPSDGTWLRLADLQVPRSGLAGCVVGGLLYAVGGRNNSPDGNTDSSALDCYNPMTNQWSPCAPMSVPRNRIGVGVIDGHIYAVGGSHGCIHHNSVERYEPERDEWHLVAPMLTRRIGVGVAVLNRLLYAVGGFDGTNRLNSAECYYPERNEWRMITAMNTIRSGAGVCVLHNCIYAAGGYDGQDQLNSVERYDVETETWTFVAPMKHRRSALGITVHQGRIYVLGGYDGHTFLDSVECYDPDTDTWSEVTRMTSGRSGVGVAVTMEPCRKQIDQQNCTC
T1 sequence (Q16236 whole entry, looked up): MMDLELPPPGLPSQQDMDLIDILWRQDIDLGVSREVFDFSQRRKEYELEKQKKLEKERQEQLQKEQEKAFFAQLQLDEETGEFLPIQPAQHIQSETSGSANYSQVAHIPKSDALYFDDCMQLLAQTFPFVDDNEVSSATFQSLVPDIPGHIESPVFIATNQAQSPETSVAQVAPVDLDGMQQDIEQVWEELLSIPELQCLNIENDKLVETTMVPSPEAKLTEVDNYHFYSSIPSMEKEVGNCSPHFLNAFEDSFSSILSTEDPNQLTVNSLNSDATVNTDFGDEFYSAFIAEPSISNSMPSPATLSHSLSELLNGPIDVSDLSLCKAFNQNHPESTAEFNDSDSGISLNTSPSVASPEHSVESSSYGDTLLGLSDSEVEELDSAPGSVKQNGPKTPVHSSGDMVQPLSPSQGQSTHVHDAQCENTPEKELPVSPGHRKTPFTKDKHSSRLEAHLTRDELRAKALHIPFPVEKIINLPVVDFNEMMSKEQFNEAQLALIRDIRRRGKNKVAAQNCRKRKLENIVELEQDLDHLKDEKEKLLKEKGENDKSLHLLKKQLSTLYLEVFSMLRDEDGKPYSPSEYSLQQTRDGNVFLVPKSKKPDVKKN
In assay [2] the target is T1, Keap1/Nrf2 (Homo sapiens). The assay is described as follows: Inhibition of Nrf2:Keap1 interaction (unknown origin) assessed as induction of negative TdeltaS values by MR121 dye-labeled Nrf2-derived peptide based tracer displacement assay. The format is protein assay.

Consider `COc1ccc(S(=O)(=O)Nc2ccc(NS(=O)(=O)c3ccc(OC)cc3)c3ccccc23)cc1`, for which, in assay [1], the deltaG was -7.84 kcal/mol. Besides, the result in assay [2] was Active.

Consider `Cc1ccc(S(=O)(=O)C2CN=C(SCC(=O)Nc3ccccc3C(F)(F)F)NC2=O)c(C)c1` (centres undefined), for which the deltaG in assay [1] is -5.93 kcal/mol. Also, the result in assay [2] was Active.
